In patent US20260085094A1, “STAPLED PEPTIDE AND USE THEREOF” (priority 2021, published 2026):

Experiments:
[1] = in vivo; design: species or system cynomolgus macaques; conditions: cynomolgus monkey, sc, 0.02 mg/kg
Description: (§1) To test the in vivo pharmacokinetics of the polypeptides of the present disclosure in cynomolgus macaques. The pharmacokinetic characteristics of the polypeptides of the present disclosure after intravenous injection and subcutaneous injection in mammals were tested according to SOP. In the experiment, the polypeptide was prepared into a clear solution, which was administered to cynomolgus macaques by single subcutaneous injection (SC, 0.02 mpk). The vehicle for subcutaneous injection was citrate buffer (20 mM, pH=7). The whole blood was collected and prepared to obtain the plasma. The drug concentration was analyzed by LC-MS/MS method, and the pharmacokinetic parameters were calculated using Phoenix WinNonlin software.

[2] = target: T1, GCGR (Homo sapiens, UniProt P47871); assay: In vitro GCGR agonistic activity test (cAMP assay); assay type: cell-based; conditions: GCGR HEK293 cell line, read-out: GCG EC50
T1 construct: host or cells: HEK293
Description: (§2) [table] The compounds to be tested were diluted 4-fold at 10 wells, starting from an initial concentration of 30 μM. […] The TopSeal-A film was removed, and readout was performed on EnVision.

[3] = in vivo; design: species or system C57BL/6 mice; conditions: sc, 0.048 mg/kg
Description: as §1, with “C57BL/6 mice.” for “cynomolgus macaques.”, “rodents” for “mammals”, “mice” for “cynomolgus macaques”, “0.048” for “0.02”

[4] = target: T2, GIPR (Homo sapiens, UniProt P48546); assay: In vitro GIPR agonistic activity test (cAMP assay); assay type: cell-based; conditions: GIPR CHO cell line, read-out: GIP-1 EC50
T2 construct: host or cells: CHO
T2 sequence (P48546 22-466): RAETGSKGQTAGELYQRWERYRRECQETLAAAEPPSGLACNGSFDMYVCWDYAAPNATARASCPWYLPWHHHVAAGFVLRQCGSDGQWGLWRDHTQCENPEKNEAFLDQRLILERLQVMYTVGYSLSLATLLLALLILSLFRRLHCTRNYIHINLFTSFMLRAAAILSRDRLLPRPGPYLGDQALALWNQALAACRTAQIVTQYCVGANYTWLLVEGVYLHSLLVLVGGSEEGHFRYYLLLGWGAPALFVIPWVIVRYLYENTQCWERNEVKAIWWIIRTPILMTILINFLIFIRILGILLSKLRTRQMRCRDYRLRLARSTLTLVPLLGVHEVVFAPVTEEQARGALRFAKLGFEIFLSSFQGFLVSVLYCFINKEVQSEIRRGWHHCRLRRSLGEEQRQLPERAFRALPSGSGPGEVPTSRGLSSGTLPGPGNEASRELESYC
Description: as §2

[5] = target: T3, GLP-1R (Homo sapiens, UniProt P43220); assay: In vitro GLP-1R agonistic activity test (cAMP assay); assay type: cell-based; conditions: GLP-1R HEK293 cell line
T3 construct: host or cells: HEK293
Description: as §2

[6] = in vivo; design: species or system SD rats; conditions: rat, sc, 0.048 mg/kg
Description: as §1, with “SD rats.” for “cynomolgus macaques.”, “after” for “after intravenous injection and”, “rodents” for “mammals”, “rats” for “cynomolgus macaques”, “0.048” for “0.02”, “for” for “for subcutaneous”

T1 sequence (P47871 26-477, species assumed): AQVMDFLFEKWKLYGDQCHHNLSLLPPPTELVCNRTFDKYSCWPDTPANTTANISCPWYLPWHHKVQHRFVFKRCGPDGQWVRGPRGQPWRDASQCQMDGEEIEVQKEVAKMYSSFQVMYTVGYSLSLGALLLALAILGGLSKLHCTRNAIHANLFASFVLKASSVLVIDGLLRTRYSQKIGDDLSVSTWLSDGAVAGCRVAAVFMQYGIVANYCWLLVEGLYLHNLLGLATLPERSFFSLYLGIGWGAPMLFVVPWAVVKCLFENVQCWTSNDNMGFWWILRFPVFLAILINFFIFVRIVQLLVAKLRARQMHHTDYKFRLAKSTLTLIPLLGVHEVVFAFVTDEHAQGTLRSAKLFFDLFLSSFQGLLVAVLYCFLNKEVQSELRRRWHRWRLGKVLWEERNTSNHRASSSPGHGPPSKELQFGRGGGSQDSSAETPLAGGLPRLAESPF
T3 sequence (P43220 24-463, species assumed): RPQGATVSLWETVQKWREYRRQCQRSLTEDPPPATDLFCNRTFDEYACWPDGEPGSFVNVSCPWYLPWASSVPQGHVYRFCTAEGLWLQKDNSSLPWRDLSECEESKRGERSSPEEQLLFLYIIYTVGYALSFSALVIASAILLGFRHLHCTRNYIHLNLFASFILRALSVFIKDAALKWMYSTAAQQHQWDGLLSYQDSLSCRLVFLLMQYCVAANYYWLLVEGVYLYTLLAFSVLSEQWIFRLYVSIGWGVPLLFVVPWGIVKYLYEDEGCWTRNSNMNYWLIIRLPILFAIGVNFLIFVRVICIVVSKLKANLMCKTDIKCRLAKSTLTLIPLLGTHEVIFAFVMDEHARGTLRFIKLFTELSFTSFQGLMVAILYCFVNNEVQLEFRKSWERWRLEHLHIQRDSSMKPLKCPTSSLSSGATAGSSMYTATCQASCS

Structure (SMILES)	AUC(0-t) [1]	Cmax [1]	Tmax [1]	half-life [1]	EC50 [2]	AUC(0-t) ([3]; C57BL/6, mouse)	Cmax ([3]; C57BL/6, mouse)	Tmax ([3]; C57BL/6, mouse)	half-life ([3]; C57BL/6, mouse)	EC50 [4]	EC50 [5]	AUC(0-t) ([6]; SD)	Cmax ([6]; SD)	Tmax ([6]; SD)	half-life ([6]; SD)	other results
CC[C@H](C)[C@H](NC(=O)[C@H](Cc1ccccc1)NC(=O)[C@H](C)NC(=O)[C@@H]1CCCCNC(=O)CN(C(=O)COCCOCCNC(=O)COCCOCCNC(=O)CC[C@H](NC(=O)CCCCCCCCCCCCCCCCCCC(=O)O)C(=O)O)CC(=O)NCCCC[C@H](NC(=O)[C@H](CCCCN)NC(=O)[C@H](CC(=O)O)NC(=O)[C@H](CC(C)C)NC(=O)[C@](C)(CC(C)C)NC(=O)[C@@H](NC(=O)[C@H](CO)NC(=O)[C@H](Cc2ccc(O)cc2)NC(=O)[C@H](CC(=O)O)NC(=O)[C@H](CO)NC(=O)[C@@H](NC(=O)[C@H](Cc2ccccc2)NC(=O)[C@@H](NC(=O)CNC(=O)[C@H](CCC(N)=O)NC(=O)C(C)(C)NC(=O)[C@@H](N)Cc2ccc(O)cc2)[C@@H](C)O)[C@@H](C)O)[C@@H](C)CC)C(=O)N[C@@H](C)C(=O)N[C@@H](CCC(N)=O)C(=O)N1)C(=O)N[C@@H](CCC(=O)O)C(=O)N[C@@H](Cc1ccc(O)cc1)C(=O)N[C@@H](CC(C)C)C(=O)N[C@@H](CC(C)C)C(=O)N[C@@H](CCC(=O)O)C(=O)NCC(=O)NCC(=O)N1CCC[C@H]1C(=O)N[C@@H](CO)C(=O)N[C@@H](CO)C(=O)NCC(=O)N[C@@H](C)C(=O)N1CCC[C@H]1C(=O)N1CCC[C@H]1C(=O)N1CCC[C@H]1C(=O)N[C@@H](CO)C(N)=O [WX001]	5.29 µM·h	49 nM	32 h	61 h	550 pM	1.83 µM·h	58 nM	12 h	16 h	130 pM	72 pM	0.718 µM·h	17 nM	24 h	25 h	
CC[C@H](C)[C@H](NC(=O)[C@H](Cc1ccccc1)NC(=O)[C@H](C)NC(=O)C(C)(C)NC(=O)[C@@H]1CCCCNC(=O)CN(C(=O)COCCOCCNC(=O)COCCOCCNC(=O)CC[C@H](NC(=O)CCCCCCCCCCCCCCCCCCC(=O)O)C(=O)O)CC(=O)NCCCC[C@H](NC(=O)[C@H](CC(=O)O)NC(=O)[C@H](CC(C)C)NC(=O)[C@](C)(CC(C)C)NC(=O)[C@@H](NC(=O)[C@H](CO)NC(=O)[C@H](Cc2ccc(O)cc2)NC(=O)[C@H](CC(=O)O)NC(=O)[C@H](CO)NC(=O)[C@@H](NC(=O)[C@H](Cc2ccccc2)NC(=O)[C@@H](NC(=O)CNC(=O)[C@H](CCC(N)=O)NC(=O)C(C)(C)NC(=O)[C@@H](N)Cc2ccc(O)cc2)[C@@H](C)O)[C@@H](C)O)[C@@H](C)CC)C(=O)N[C@@H](CCCCN)C(=O)N[C@@H](C)C(=O)N1)C(=O)N[C@@H](CCC(=O)O)C(=O)N[C@@H](Cc1ccc(O)cc1)C(=O)N[C@@H](CC(C)C)C(=O)N[C@@H](CC(C)C)C(=O)N[C@@H](CCC(=O)O)C(=O)NCC(=O)NCC(=O)N1CCC[C@H]1C(=O)N[C@@H](CO)C(=O)N[C@@H](CO)C(=O)NCC(=O)N[C@@H](C)C(=O)N1CCC[C@H]1C(=O)N1CCC[C@H]1C(=O)N1CCC[C@H]1C(=O)N[C@@H](CO)C(N)=O [WX002]	5.1 µM·h	54 nM	24 h	52 h			69 nM						30 nM			AUC(0-t) ([3]; mouse): 2.01 µM·h; Tmax ([3]; mouse): 8 h; half-life ([3]; mouse): 10 h; AUC(0-t) [6]: 1.06 µM·h; Tmax [6]: 20 h; half-life [6]: 14 h
CC[C@H](C)[C@H](NC(=O)[C@H](Cc1ccccc1)NC(=O)[C@H](C)NC(=O)C(C)(C)NC(=O)[C@H](CCC(N)=O)NC(=O)[C@H](C)NC(=O)[C@H](CCCCN)NC(=O)[C@H](CCCCN)NC(=O)[C@H](CC(=O)O)NC(=O)[C@H](CC(C)C)NC(=O)[C@](C)(CC(C)C)NC(=O)[C@@H](NC(=O)[C@H](CO)NC(=O)[C@H](Cc1ccc(O)cc1)NC(=O)[C@H](CC(=O)O)NC(=O)[C@H](CO)NC(=O)[C@@H](NC(=O)[C@H](Cc1ccccc1)NC(=O)[C@@H](NC(=O)CNC(=O)[C@H](CCC(N)=O)NC(=O)C(C)(C)NC(=O)[C@@H](N)Cc1ccc(O)cc1)[C@@H](C)O)[C@@H](C)O)[C@@H](C)CC)C(=O)N[C@@H](CCC(=O)O)C(=O)N[C@H]1CCCCNC(=O)CN(C(=O)COCCOCCNC(=O)COCCOCCNC(=O)CC[C@H](NC(=O)CCCCCCCCCCCCCCCCCCC(=O)O)C(=O)O)CC(=O)NCCCC[C@@H](C(=O)NCC(=O)NCC(=O)N2CCC[C@H]2C(=O)N[C@@H](CO)C(=O)N[C@@H](CO)C(=O)NCC(=O)N[C@@H](C)C(=O)N2CCC[C@H]2C(=O)N2CCC[C@H]2C(=O)N2CCC[C@H]2C(=O)N[C@@H](CO)C(N)=O)NC(=O)[C@H](CC(C)C)NC(=O)[C@H](CC(C)C)NC1=O [WX005]	5.81 µM·h	43 nM	48 h	100 h	1400 pM	2.13 µM·h	72 nM	12 h	15 h	140 pM	63 pM	1.21 µM·h	26 nM	28 h	23 h	
